From PMC9967275, “Screening the Pathogen Box to Discover and Characterize New Cruzain and TbrCatL Inhibitors” (Pathogens, 2023)
Where two headings read alike, the source gives them in different places.

Legend:
cruzain = cruzain (Trypanosoma cruzi, UniProt P25779); experiment: biochemical;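 on Cruzain 0’ Inhibition: at 5 µM compound concentration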;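 on Cruzain 10’ Inhibition: at 5 µM compound concentration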;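 on Cruzain Inhibition 0’: at 5 µM compound concentration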;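 on Cruzain Inhibition 10’: at 5 µM compound concentration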
Summary of the method: (§1)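 Recombinant enzymes assayed by Z-Phe-Arg-AMC cleavage at 25 °C, fluorescence 340/440 nm over 5–7 min, with 10 min or no enzyme–compound preincubation.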

TbrCatL = biological target: T1, TbrCatL (Trypanosoma brucei rhodesiense, UniProt Q95PM0); experiment: TbrCatL enzymatic inhibition assay (cleavage of fluorogenic substrate Z-FR-AMC); format: biochemical; settings: for TbrCatL 0’ Inhibition / TbrCatL 10’ Inhibition: sheet "Screening results";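 on TbrCatL 0’ Inhibition: at 5 µM compound concentration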;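 on TbrCatL 10’ Inhibition: at 5 µM compound concentration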;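 on TbrCatL Inhibition 0’: at 5 µM compound concentration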;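 on TbrCatL Inhibition 10’: at 5 µM compound concentration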
T1 construct: Conor Caffrey (University of California San Diego)
Summary of the method: as §1

[1] = read-out: Inhibition at 5 µM (Mean ± SEM %) Cruzain 0′, 5 µM, no pre-incubation, initial screening
[2] = read-out: Inhibition at 5 µM (Mean ± SEM %) Cruzain 10′ inc, 5 µM, 10′ pre-incubation, initial screening
[3] = read-out: Inhibition of cruzain or TbrCatL (either enzyme) in the initial screening, 5 µM, either cruzain or TbrCatL, with or without pre-incubation
[4] = 0’ (no pre-incubation), sheet Screening results
[5] = 10’ (pre-incubation), sheet Screening results
[6] = read-out: Inhibition at 5 µM (Mean ± SEM %) TbrCatL 0′
[7] = read-out: Inhibition at 5 µM (Mean ± SEM %) TbrCatL 10′ inc
[8] = 0’ (pre-incubation time), sheet "Screening results"
[9] = 10’ (pre-incubation time), sheet "Screening results"
[10] = 0’ (pre-incubation time), Pathogen Box screening results
[11] = 10’ (pre-incubation time), Pathogen Box screening results

Chain of cruzain (P25779 123-337 limits assumed): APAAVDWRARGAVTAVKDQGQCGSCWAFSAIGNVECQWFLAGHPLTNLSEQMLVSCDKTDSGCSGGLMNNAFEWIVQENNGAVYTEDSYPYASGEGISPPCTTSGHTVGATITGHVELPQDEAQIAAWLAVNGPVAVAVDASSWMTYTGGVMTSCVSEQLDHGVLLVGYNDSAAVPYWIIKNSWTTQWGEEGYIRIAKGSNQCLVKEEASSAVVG
T1 sequence (Q95PM0 entry or part of it): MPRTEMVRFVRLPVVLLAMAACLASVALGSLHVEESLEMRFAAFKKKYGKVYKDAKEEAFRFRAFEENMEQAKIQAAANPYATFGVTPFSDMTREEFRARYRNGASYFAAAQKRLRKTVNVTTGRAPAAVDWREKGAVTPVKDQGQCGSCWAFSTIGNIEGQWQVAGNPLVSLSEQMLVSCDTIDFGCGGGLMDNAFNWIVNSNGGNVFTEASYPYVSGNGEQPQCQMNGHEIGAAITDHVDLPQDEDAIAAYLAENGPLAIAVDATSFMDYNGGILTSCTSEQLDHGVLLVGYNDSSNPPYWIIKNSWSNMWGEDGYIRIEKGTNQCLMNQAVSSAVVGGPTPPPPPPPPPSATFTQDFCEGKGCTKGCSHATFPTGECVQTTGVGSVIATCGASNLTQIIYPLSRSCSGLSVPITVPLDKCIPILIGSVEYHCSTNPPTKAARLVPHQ

SMILES | TbrCatL Inhibition 0’ (TbrCatL; [4]) [%] | TbrCatL Inhibition 10’ (TbrCatL; [5]) [%] | Cruzain 0’ Inhibition (cruzain; [8]) [%] | Cruzain 10’ Inhibition (cruzain; [9]) [%] | TbrCatL 0’ Inhibition (TbrCatL; 0’ (pre-incubation time)) [%] | TbrCatL 10’ Inhibition (TbrCatL; 10’ (pre-incubation time)) [%] | Cruzain Inhibition 0’ (cruzain; [4]) [%] | Cruzain Inhibition 10’ (cruzain; [5]) [%] | further results
COc1ccc(C2=NN(C3CCCCCC3)C(=O)[C@H]3CC=CC[C@@H]23)cc1OCCCCOc1ccc(-c2nn[nH]n2)cc1 [MMV690027] | 6.4 | -1.8 |  |  |  |  |  |  | inhibition at 5 µM (cruzain; [1]): 50 ± 5%; inhibition at 5 µM (cruzain; [2]): 33 ± 2%; inhibition at 5 µM (cruzain; [3]): ≥ 40%; inhibition at 5 µM (TbrCatL; [6]): 6 ± 2%; inhibition at 5 µM (TbrCatL; [7]): 0%
Cc1cnc(N2CCN[C@@H](Cc3ccccc3)C2)nc1Oc1ccc(-n2ccnc2)cc1 [MMV687765] |  |  | 4.4 | 13 | 5 | 8.5 |  |  | 
CC(C)(C)CN1C(=O)C(c2ccccc2)(c2ccccc2)N=C1N [MMV026550] |  |  | 0 | 2.8 | -5 | 0.2 |  |  | 
CC1(C)OB(O)c2ccc(C3=NOC(c4cc(Cl)c(F)c(Cl)c4)(C(F)(F)F)C3)cc21 (stereo not drawn) [MMV687775] | -0.5 | -8 |  |  |  |  | 13 | -4 | 
O=C(NCCN1CCCC1)c1cc(NCCN2CCOCC2)nc2ccc(Cl)cc12 [MMV634140] |  |  |  |  |  |  |  |  | inhibition at 5 µM (cruzain; read-out: Cruzain 0’ Inhibition, 0’ (pre-incubation time), sheet "Screening results"): 24%; inhibition at 5 µM (cruzain; read-out: Cruzain 10’ Inhibition, 10’ (pre-incubation time), sheet "Screening results"): 31%; inhibition at 5 µM (cruzain; [1]): 24 ± 1%; inhibition at 5 µM (cruzain; [2]): 31 ± 3%; inhibition at 5 µM (cruzain; [3]): ≥ 40%; inhibition at 5 µM (TbrCatL; [6]): 11 ± 1%; inhibition at 5 µM (TbrCatL; [7]): 42 ± 3%; inhibition at 5 µM (TbrCatL; read-out: TbrCatL 0’ Inhibition): 11%; inhibition at 5 µM (TbrCatL; read-out: TbrCatL 10’ Inhibition): 42%
C[C@H](C(N)=O)N1CCCC[C@@H]1c1ccc(OCc2cccc(F)c2)cc1 [MMV676270] |  |  |  |  |  |  |  |  | Cruzain Inhibition 0’ (cruzain; [10]): 4.6%; Cruzain Inhibition 10’ (cruzain; [11]): 9%; TbrCatL Inhibition 0’ (TbrCatL; [10]): 3.2%; TbrCatL Inhibition 10’ (TbrCatL; [11]): -0.6%
NCC(=O)N1CCn2c(nc(-c3ccccc3)c2Nc2ccc3c(c2)OCO3)C1 [MMV011691] |  |  | 1.8 | -3.4 | -1.7 | 1.3 |  |  | 
Cc1nnc(NCc2cccc(Cl)c2)c2ccccc12 [MMV676555] | 3 | -4.6 |  |  |  |  | -1.4 | 3.2 | 
CC(Oc1cccc(Cl)c1)C(=O)Nc1ccc2oc(-c3ccncc3)nc2c1 (stereo not drawn) [MMV688472] | 13 | 14 |  |  |  |  | 17 | 14 | 
Nc1ncc(-c2cn[nH]c2)cc1-c1nc2cc(Cl)cnc2[nH]1 [MMV023370] |  |  | -3.5 | 8 | 3.3 | -1.5 |  |  | 
N#Cc1nc(-c2ccccc2F)oc1NCCc1ccccc1 [MMV676384] |  |  | 7 | 6 | 3.4 | 7 |  |  | 
COc1cccc2c(C)nc(N=C(N)N)nc12 [MMV000907] | 32 | 23 |  |  |  |  | 9.5 | 25 | 
CCCn1nnc(NC(=O)COc2ccc(C3CCCCC3)cc2)n1 [MMV676597] | 10 | 10 |  |  |  |  | 3 | -3.3 | 
COc1ccc(C2(C(=O)Nc3ccc(Br)cc3)CCCC2)cc1 [MMV200748] |  |  | 3.8 | 4 | -2.7 | -3 |  |  | 
CC(C)(C)C(=O)N(CCCCCCN1C[C@H](O)[C@@H](O)[C@H](O)[C@H]1CO)C1CCCCCC1 [MMV688543] |  |  |  |  |  |  |  |  | Cruzain Inhibition 0’ (cruzain; [10]): -1.2%; Cruzain Inhibition 10’ (cruzain; [11]): 7.5%; TbrCatL Inhibition 0’ (TbrCatL; [10]): -7%; TbrCatL Inhibition 10’ (TbrCatL; [11]): 1.7%
Cc1ccc2oc(-c3cc(NC(=O)Cc4ccccc4)ccc3Cl)nc2c1 [MMV676509] | 11 | 12 |  |  |  |  | 21 | 5 | 
CC1(C)Cc2c(c(N3CCOCC3)nc3snc(Br)c23)CO1 [MMV687794] |  |  | 8 | 27 | 4.7 | 25 |  |  | 
COc1ccc(-c2nc(-c3cccc(NC(=O)Cc4ccc(F)cc4)c3)no2)cc1OC [MMV676571] | 8 | 10 |  |  |  |  | 6 | 4 | 
CNc1cc(C)nc(C2CN(C(=O)c3n[nH]c4ccccc34)CCO2)c1 (stereo not drawn) [MMV689709] |  |  | -1.4 | 1.3 | 8 | 3.8 |  |  | 
CNC(=O)C1Cc2ccccc2N1C(=O)Cc1ccc(F)cc1 (stereo not drawn) [MMV188296] | 14 | 13 |  |  |  |  | 10 | 10 | 

SMILES | TbrCatL Inhibition 0’ (TbrCatL; [4]) [%] | TbrCatL Inhibition 10’ (TbrCatL; [5]) [%] | Cruzain 0’ Inhibition (cruzain; [8]) [%] | Cruzain 10’ Inhibition (cruzain; [9]) [%] | TbrCatL 0’ Inhibition (TbrCatL; 0’ (pre-incubation time)) [%] | TbrCatL 10’ Inhibition (TbrCatL; 10’ (pre-incubation time)) [%] | Cruzain Inhibition 0’ (cruzain; [4]) [%] | Cruzain Inhibition 10’ (cruzain; [5]) [%] | further results
COc1cccc(CC(=O)N2CCC(n3c(C)nc4ccc(F)cc43)CC2)c1 [MMV020081] |  |  | 5 | 10 | 1.6 | 18 |  |  | 
O=C(C1CCCCC1)N1CC(=O)N2CCc3ccccc3[C@@H]2C1 [MMV002529] | 5 | 5.7 |  |  |  |  | 22 | 18 | 
O=C(Nc1ccc(N2CCNCC2)nc1)c1oc(-c2ccccc2)nc1C(F)(F)F [MMV024937] |  |  | 5.6 | 14 | 20 | 23 |  |  | 
CC1=Nc2ccc(Cl)cc2C(O)(c2ccc(C)cc2)N1CCN1CCCCC1 (stereo not drawn) [MMV688279] |  |  | -4.5 | 0.1 | -3 | -5 |  |  | 
CCC(=O)Nc1ccccc1C(=O)Nc1ccccn1 [MMV202553] | 15 | 7 |  |  |  |  | 15 | 14 | 
Cc1cc(OCC(=O)Nc2ccc(C(C)C)cc2)n(C)c(=O)c1C#N [MMV1198433] |  |  | -4.6 | -6 | -5 | -4.5 |  |  | 
Cc1[nH]c2cc(F)cc(F)c2c(=O)c1-c1ccc(Oc2ccc(OC(F)(F)F)cc2)cc1 [MMV671636] |  |  | 8 | 17 | 10 | 6.6 |  |  | 
COc1ccc(CCN2CCC(NCc3cccc(N(C)C)c3)CC2)cc1 [MMV011511] |  |  | 5.7 | 3.6 | 0.4 | 9 |  |  | 
CNC1C(OC2C(OC3C(O)C(O)C(N=C(N)N)C(O)C3N=C(N)N)OC(C)C2(O)C=O)OC(CO)C(O)C1O (stereo not drawn) [MMV688994] | 1.1 | 1.5 |  |  |  |  | -4 | -2.3 | 
CCc1nc2ccc(Cl)cn2c1C(=O)NCc1ccc(N2CCC(c3ccc(OC(F)(F)F)cc3)CC2)cc1 [MMV687696] |  |  | 4.7 | 1.8 | -4.5 | -3.6 |  |  | 
COc1ccc2nc(C)cc(OCC(=O)Nc3ccccc3OC)c2c1 [MMV687188] |  |  | 0.8 | 4.7 | -0.5 | 3 |  |  | 
COC(=O)Nc1nc2ccc(C(=O)c3ccccc3)cc2[nH]1 [MMV003152] | 4.7 | -5.3 |  |  |  |  | 3.3 | -1.4 | 
Cc1nnc(NC(=O)c2cn(-c3ccccc3)nc2-c2ccccc2C)o1 [MMV020320] | -0.2 | 4 |  |  |  |  | 4.5 | 2.2 | 
CC1CCCN(C(=O)C(C)Nc2cc(Cl)ccc2N2CCOCC2)C1 (stereo not drawn) [MMV020388] | 3.3 | 0.2 |  |  |  |  | 3.4 | 4.5 | 
O=C(NC1CC1)c1ccc(N2CCOc3ccc(Cl)cc32)s1 [MMV020537] | 8 | 6 |  |  |  |  | 18 | 9 | 
Cc1ccccc1C(=O)N1NC(=Nc2ccccc2)SC1(C)C [MMV688771] |  |  | 29 | 8 | -5 | 0.3 |  |  | 
c1coc(CNc2nc(N3CCCCC3)nc3ccccc23)c1 [MMV676401] | 6.5 | 15 |  |  |  |  | 4.6 | 9 | 
CCOc1ccccc1C(=O)Nc1cccc(-c2nc3ncccn3c2C)c1 [MMV019790] |  |  | 3.2 | 4 | 8 | -0.3 |  |  | 
O=C1O[C@@H](COc2ccon2)CN1c1cc(F)c(C2=CCN(Cc3ccccc3)CC2)c(F)c1 [MMV687813] |  |  | 2.7 | 23 | 5.3 | -1 |  |  | 
CNC(=O)c1nn(C)c2c1C(C)(C)Cc1cnc(Nc3ccc(N4CCN(C)CC4)cc3)nc1-2 [MMV676602] | 4 | 1.5 |  |  |  |  | 0.9 | -6 | 
